Assay results reported in ChEMBL document CHEMBL5291721, “A preclinical secondary pharmacology resource illuminates target-adverse drug reaction associations of marketed drugs” (Nat Commun, 2023).

Key:
[1] = target: T1, Adenosine receptor A3 (Homo sapiens, UniProt P0DMS8)
T1 sequence (P0DMS8 whole entry): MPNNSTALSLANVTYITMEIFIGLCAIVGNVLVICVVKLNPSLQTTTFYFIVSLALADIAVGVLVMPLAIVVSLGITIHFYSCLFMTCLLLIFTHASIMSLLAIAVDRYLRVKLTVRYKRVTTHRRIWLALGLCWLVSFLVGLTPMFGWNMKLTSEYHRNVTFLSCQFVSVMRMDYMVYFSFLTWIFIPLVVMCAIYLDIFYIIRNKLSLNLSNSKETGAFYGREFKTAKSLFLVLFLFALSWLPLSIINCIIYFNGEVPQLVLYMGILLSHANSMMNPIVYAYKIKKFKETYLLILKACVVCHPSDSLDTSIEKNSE

[2] = target: T2, Alpha-2A adrenergic receptor (Homo sapiens, UniProt P08913); assay type: functional, cell-based
T2 sequence (P08913 whole entry): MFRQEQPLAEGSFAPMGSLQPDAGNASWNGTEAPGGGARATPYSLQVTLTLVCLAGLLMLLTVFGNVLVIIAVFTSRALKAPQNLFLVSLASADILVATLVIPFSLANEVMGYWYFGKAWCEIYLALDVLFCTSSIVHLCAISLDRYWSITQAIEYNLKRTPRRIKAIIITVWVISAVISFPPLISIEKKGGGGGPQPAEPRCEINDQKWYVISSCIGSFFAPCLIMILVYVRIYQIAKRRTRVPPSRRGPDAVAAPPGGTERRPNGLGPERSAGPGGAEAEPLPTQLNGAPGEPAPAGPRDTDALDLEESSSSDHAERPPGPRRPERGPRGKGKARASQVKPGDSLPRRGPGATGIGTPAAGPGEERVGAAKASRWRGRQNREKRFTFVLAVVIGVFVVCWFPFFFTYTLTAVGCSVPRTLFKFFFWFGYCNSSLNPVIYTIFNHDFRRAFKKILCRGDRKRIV

[3] = target: T3, Muscarinic acetylcholine receptor M2 (Homo sapiens, UniProt P08172); assay type: functional, cell-based
T3 sequence (P08172 whole entry): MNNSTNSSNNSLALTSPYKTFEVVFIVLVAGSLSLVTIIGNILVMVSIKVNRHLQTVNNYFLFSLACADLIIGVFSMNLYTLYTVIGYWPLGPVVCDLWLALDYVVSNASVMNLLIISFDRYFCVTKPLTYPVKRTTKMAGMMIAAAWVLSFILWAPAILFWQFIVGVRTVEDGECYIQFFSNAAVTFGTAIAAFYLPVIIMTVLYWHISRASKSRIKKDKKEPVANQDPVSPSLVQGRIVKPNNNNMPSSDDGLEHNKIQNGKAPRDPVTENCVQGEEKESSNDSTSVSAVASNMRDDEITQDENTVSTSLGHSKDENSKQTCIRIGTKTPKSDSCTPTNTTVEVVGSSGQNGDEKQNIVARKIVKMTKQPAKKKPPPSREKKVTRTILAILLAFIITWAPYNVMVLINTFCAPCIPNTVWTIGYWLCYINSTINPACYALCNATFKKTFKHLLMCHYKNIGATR

[4] = target: D(1A) dopamine receptor (Homo sapiens, UniProt P21728); assay type: functional, cell-based
Sequence of D(1A) dopamine receptor (P21728 whole entry): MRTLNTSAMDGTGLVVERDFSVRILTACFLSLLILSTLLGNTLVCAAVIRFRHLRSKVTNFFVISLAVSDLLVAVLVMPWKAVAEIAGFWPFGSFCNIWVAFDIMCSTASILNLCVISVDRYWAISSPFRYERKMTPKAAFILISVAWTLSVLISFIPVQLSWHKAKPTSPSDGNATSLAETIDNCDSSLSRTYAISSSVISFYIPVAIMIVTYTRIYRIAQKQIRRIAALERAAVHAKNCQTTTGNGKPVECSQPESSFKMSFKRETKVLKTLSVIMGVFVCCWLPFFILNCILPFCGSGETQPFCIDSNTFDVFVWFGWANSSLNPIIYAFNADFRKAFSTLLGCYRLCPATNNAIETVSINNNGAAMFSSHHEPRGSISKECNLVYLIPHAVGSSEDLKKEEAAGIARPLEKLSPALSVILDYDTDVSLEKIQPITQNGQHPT

[5] = target: T4, 5-hydroxytryptamine receptor 1A (Homo sapiens, UniProt P08908); assay type: functional, cell-based
T4 sequence (P08908 whole entry): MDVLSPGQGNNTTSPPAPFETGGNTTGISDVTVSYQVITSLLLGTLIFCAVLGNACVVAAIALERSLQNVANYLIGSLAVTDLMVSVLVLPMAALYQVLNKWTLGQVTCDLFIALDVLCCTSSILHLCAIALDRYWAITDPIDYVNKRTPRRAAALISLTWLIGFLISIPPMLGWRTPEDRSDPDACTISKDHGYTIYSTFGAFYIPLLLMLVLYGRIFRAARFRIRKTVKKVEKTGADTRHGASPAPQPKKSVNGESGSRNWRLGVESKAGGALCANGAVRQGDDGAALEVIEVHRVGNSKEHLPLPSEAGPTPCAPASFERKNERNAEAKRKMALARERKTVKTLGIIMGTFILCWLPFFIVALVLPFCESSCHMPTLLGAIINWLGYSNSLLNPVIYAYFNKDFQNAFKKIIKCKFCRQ

[6] = target: 5-hydroxytryptamine receptor 2B (Homo sapiens, UniProt P41595); assay type: functional, cell-based
Sequence of 5-hydroxytryptamine receptor 2B (P41595 whole entry): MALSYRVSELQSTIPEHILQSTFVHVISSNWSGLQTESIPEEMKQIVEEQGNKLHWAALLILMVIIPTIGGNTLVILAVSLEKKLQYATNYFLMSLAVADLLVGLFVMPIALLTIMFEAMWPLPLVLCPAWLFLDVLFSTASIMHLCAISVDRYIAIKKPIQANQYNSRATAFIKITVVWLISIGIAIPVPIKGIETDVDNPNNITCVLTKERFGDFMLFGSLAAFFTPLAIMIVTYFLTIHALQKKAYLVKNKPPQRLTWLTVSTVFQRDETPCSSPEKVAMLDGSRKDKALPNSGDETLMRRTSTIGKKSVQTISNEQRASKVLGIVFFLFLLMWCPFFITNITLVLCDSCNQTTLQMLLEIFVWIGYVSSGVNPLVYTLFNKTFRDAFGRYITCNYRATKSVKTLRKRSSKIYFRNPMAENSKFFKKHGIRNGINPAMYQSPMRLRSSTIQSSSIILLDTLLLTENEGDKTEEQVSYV

[7] = target: T5, 5-hydroxytryptamine receptor 3A (Homo sapiens, UniProt P46098); assay type: functional
T5 sequence (P46098 whole entry): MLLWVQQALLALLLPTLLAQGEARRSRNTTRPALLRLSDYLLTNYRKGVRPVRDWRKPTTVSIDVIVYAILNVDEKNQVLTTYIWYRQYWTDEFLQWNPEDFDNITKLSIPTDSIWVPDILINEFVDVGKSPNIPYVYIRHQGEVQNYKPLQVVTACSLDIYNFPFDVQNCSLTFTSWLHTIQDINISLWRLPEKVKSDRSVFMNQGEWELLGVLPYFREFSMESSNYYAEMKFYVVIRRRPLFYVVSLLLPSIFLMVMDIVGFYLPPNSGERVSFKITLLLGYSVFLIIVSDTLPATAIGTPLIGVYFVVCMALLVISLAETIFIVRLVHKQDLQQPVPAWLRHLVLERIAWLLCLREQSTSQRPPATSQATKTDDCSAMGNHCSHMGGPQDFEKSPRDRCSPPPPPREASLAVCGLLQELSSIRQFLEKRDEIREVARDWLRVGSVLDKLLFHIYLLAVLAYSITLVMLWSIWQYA

[8] = target: Delta-type opioid receptor (Homo sapiens, UniProt P41143)
Sequence of Delta-type opioid receptor (P41143 whole entry): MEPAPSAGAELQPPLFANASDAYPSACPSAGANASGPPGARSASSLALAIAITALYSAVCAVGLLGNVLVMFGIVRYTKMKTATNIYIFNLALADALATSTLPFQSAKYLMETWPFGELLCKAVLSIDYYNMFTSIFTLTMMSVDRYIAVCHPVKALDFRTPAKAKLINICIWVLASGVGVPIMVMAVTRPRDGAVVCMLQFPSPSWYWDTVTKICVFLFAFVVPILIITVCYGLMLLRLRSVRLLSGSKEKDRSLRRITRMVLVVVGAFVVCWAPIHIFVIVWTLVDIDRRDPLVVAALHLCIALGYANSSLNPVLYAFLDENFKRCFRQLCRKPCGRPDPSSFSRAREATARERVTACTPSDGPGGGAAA

[9] = target: T6, Cannabinoid receptor 1 (Homo sapiens, UniProt P21554); assay type: functional, cell-based
T6 sequence (P21554 whole entry): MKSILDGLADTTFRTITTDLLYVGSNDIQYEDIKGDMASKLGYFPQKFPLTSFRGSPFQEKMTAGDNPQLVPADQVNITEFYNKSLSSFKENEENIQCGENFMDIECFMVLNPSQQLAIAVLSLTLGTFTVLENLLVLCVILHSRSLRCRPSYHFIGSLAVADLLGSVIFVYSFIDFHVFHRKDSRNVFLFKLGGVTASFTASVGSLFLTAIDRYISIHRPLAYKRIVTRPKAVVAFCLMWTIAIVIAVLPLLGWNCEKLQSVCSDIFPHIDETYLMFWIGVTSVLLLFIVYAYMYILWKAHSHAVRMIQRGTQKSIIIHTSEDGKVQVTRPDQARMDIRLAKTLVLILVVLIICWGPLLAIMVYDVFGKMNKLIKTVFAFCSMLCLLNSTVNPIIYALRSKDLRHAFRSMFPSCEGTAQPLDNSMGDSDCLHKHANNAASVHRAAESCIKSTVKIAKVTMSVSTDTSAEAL

[10] = target: T6, Cannabinoid receptor 1; assay type: functional, cell-based; remark: listed apart in the source
Note: assay procedure not described here.

Row | SMILES | AC50 [1] | AC50 [2] | AC50 [3] | AC50 [4] | AC50 [5] | AC50 [6] | AC50 [7] | AC50 [8] | AC50 [9] | AC50 [10]
1 | CC(=O)N[C@H]1[C@H]([C@H](O)[C@H](O)CO)OC(C(=O)O)=C[C@@H]1N=C(N)N [ZANAMIVIR] | > 30 µM | > 10 µM | > 10 µM | > 30 µM | > 30 µM | > 30 µM | > 30 µM | > 30 µM |  | 
2 | C[N+](C)(C)CC(=O)O [BETAINE] | > 30 µM | > 30 µM | > 30 µM | > 30 µM | > 30 µM | > 30 µM | > 30 µM | > 30 µM | > 30 µM | > 30 µM
3 | CC(=O)N(CC(O)CO)c1c(I)c(C(=O)NCC(O)CO)c(I)c(C(=O)NCC(O)CO)c1I (stereo unspecified) [IOHEXOL] | > 30 µM | > 10 µM | > 10 µM | > 10 µM | > 10 µM | > 10 µM | > 30 µM | > 30 µM | > 30 µM | > 30 µM
4 | CN(C/C=C/c1ccccc1)Cc1cccc2ccccc12 [NAFTIFINE] | > 30 µM | > 10 µM | > 10 µM | > 10 µM | > 10 µM | > 10 µM | > 30 µM | > 30 µM | > 30 µM | > 30 µM
5 | NS(=O)(=O)c1cc(-c2nnn[nH]2)c(NCc2cccs2)cc1Cl [AZOSEMIDE] | > 30 µM | > 30 µM | > 30 µM | > 30 µM | > 30 µM | > 30 µM | > 30 µM | > 30 µM | > 30 µM | > 30 µM
6 | C=C1C[C@@H]2[C@H](CC[C@]3(C)C(=O)CC[C@@H]23)[C@@]2(C)C=CC(=O)C=C12 [EXEMESTANE] | > 30 µM | > 10 µM | > 10 µM | > 10 µM | > 10 µM | 36 µM | > 30 µM | > 30 µM | > 30 µM | > 30 µM
7 | CCCC(=O)N1CCCN(c2nc(N)c3cc(OC)c(OC)cc3n2)CC1 [BUNAZOSIN] | > 30 µM | 11 µM | > 30 µM | > 30 µM | > 30 µM | > 30 µM | > 30 µM | > 30 µM | > 30 µM | > 30 µM
8 | CC(C)NCC1CCc2cc(CO)c([N+](=O)[O-])cc2N1 (stereo unspecified) [OXAMNIQUINE] | > 10 µM | > 10 µM | > 10 µM | > 10 µM | > 30 µM | 26 µM | > 30 µM | > 30 µM | > 30 µM | > 30 µM
9 | CC(C)(N)Cc1ccc(Cl)cc1 [CHLORPHENTERMINE] | > 30 µM | > 10 µM | > 10 µM | > 10 µM | > 10 µM | 25 µM | > 30 µM | > 30 µM | > 30 µM | > 30 µM
10 | O=P(O)(O)C(O)(Cc1cccnc1)P(=O)(O)O [RISEDRONIC ACID] | > 30 µM | > 30 µM | > 30 µM | > 30 µM | > 30 µM | > 30 µM | > 30 µM | > 30 µM | > 30 µM | > 30 µM
11 | CC(C(O)c1ccc(O)cc1)N1CCC(Cc2ccccc2)CC1 (stereo unspecified) [IFENPRODIL] | > 30 µM | 3.8 µM | > 30 µM | > 30 µM | 1.3 µM | 2.3 µM | > 30 µM | > 30 µM | > 30 µM | > 30 µM
12 | CN(C)[C@@H]1C(O)=C(C(N)=O)C(=O)[C@@]2(O)C(O)=C3C(=O)c4c(O)ccc(Cl)c4[C@@H](O)[C@H]3C[C@@H]12 [DEMECLOCYCLINE] | > 10 µM | > 10 µM | > 10 µM | > 10 µM | > 10 µM | > 10 µM | > 30 µM | > 30 µM |  | 
